Where two headings read alike, the source gives them in different places. One block for each molecule: values may come before it.
Legend:
aldehyde oxidase (AOX) [1] = assay: Metabolism kinetics of DACA and phthalazine in rabbit cytosol; conditions: for kcat: rabbit cytosol
aldehyde oxidase (AOX) [2] = biological target: T1, aldehyde oxidase (AOX) (Homo sapiens, UniProt Q06278); assay: Metabolism kinetics of DACA and phthalazine in human cytosol
T1 sequence (Q06278 1-1338): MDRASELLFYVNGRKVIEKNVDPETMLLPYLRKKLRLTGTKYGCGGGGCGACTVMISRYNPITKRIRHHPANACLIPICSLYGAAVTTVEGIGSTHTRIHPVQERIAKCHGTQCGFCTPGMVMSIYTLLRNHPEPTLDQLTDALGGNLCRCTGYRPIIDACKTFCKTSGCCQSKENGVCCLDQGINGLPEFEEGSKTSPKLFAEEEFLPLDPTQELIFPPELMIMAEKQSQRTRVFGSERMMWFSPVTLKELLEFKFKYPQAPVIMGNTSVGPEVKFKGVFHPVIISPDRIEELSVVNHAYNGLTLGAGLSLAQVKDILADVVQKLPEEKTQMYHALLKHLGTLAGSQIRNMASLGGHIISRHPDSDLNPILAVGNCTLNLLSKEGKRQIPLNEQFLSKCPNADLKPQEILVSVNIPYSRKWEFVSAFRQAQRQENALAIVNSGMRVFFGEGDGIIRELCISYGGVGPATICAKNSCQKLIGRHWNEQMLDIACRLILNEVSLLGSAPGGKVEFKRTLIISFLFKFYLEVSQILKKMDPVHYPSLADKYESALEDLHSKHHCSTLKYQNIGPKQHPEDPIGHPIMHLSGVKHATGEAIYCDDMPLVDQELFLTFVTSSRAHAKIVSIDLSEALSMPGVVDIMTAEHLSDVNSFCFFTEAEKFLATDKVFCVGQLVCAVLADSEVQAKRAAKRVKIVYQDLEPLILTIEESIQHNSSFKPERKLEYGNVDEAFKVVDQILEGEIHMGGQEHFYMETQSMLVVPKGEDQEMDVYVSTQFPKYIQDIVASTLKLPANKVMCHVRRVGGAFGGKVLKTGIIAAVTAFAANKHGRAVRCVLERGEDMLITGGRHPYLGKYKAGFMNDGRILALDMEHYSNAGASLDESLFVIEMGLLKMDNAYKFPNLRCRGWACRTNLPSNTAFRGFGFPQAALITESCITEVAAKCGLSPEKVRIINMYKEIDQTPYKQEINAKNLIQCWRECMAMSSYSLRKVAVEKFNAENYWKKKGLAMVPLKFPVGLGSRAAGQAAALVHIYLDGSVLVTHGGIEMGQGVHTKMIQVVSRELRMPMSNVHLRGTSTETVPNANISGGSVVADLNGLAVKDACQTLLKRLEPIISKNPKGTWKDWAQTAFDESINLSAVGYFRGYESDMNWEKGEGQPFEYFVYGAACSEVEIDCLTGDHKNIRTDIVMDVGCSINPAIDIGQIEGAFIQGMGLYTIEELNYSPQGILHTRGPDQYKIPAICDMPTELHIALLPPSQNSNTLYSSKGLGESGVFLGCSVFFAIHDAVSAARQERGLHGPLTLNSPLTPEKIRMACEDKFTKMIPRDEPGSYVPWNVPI

aldehyde oxidase (AOX) [3] = test system: aldehyde oxidase (AOX)
aldehyde oxidase (AOX) [4] = biological target: T1, aldehyde oxidase (AOX)
[5] = substrate: CN(Cc1cnc2nc(N)nc(N)c2n1)c1ccc(C(=O)N[C@@H](CCC(=O)O)C(=O)O)cc1
[6] = substrate: c1ccc2cnncc2c1; assay: cells, lysate or membranes named; conditions: other: human cytosol; unit not given

kcat (aldehyde oxidase (AOX) [1]): 182 min⁻¹
kcat (aldehyde oxidase (AOX) [2]): 2.22 s⁻¹
Km (aldehyde oxidase (AOX) [3]): 2 µM
Km (aldehyde oxidase (AOX) [4]): 7 µM
Molecule: CN(C)CCNC(=O)c1cccc2cc3ccccc3nc12 [DACA]

Km (aldehyde oxidase (AOX) [1]; New Zealand, rabbit, cytosol): 23 µM
kcat (aldehyde oxidase (AOX) [1]): 16,000 min^−1
Molecule: c1ccc2cnncc2c1 [phthalazine]

B1: AOX1 (Homo sapiens) (protein)
chain: T1 sequence (Q06278 1-1338)
Km [5]: 2800 µM
Vmax [5]: 40 to 70 pmol/min/mg
kcat/Km [5]: 15 M⁻¹ s⁻¹

B2: aldehyde oxidase (AOX) (Homo sapiens) (protein)
chain: T1 sequence (Q06278 1-1338)
kcat [6]: 4.37 s⁻¹

B3: AOX1 (Macaca mulatta) (protein)
chain: MDRASELLFYVNGRKVIEKNVDPETMLLPYLRKKLRLTGTKYGCGGGGCGACTVMISRYNPITNRIRHHPANACLIPICSLYGTAVTTVEGIGSTHTRIHPVQERIAKCHGTQCGFCTPGMVMSIYTLLRNHPEPTLDQLTDALGGNLCRCTGYRPIIDACKTFCETSGCCQSKENGVCCLDQGINGLPEFEEGSKTSPKLFAEEEFLPLDPTQELIFPPELMIMAEKQPQRTRVFGSERMMWFSPVTLKELLEFKFKYPQAPVIMGNTSVGPQVKFKGVFHPVIISPDRIEELSVVNRTHNGLTLGAGLSLAQVKDILADVVQKLPEEKTQTYHALLKHLGTLAGSQIRNMASLGGHIISRHPDSDLNPILAVGNCTLNLLSKEGKRQIPLNEQFLSKCPNADLKPQEILVSVNIPYSRKLEFVSAFRQAQRQENALAIVNSGMRVFFGEGHGIIRELSISYGGVGPATICAKNSCQKLIGRHWNEEMLDTACRLVLEEVSLSGSAPGGKVEFKRTLIISFLFKFYLEVSQILKKMDPIHYPSLADKYESALEDLHSKHHCSTLKYQHMGPKQHPEDPIGHPIMHLSGVKHATGEAIYCDDMPPVDQELFLTFVTSSRAHAKIVSIDLSEALSMPGVVDVITAEHLSDVNSFCFFTEAEEFLATDKVFCVGQLVCAVLADSEVQAKQAAKQVKIVYQDLEPLILTIKEAIQHNSFFEPERKLEYGNVDEAFKVVDQILEGEIHMGGQEHFYMETQSMLVVPKGEDQEMDVYVSTQFPKYIQDIVASTLKLPANKVMCHVKRVGGAFGGKAFKTGVIAAVTAFAANKHGRAVRCVLERGEDMLITGGRHPYLGKYKAGFMNDGRILALDMEHYSNAGNSLDESLLVIEMGLLKMDNAYKFPNLRCRGWACRTNLPSNTAFRGFGFPQAGLITESCIMEVAAKCGLSPEKVRMINMYKEIDQTPYKQEINAKNLIQCWRECMAVSSYSLRKAAVEKFNAENYWKKKGLAMVPLKYPVGLGSRAAGQAAALVHIYLDGSVLVTHGGIEMGQGVHTKMIQVVSRELGMPISNVHLRGTSTETVPNANVSGGSVVADLNGLAVKDACQILLKRLEPIISKNPKGTWKDWAQTAFDESISLSAVGYFRGYESDINWEKGEGHPFEYFVYGAACSEVEIDCLTGDHKNIRTDIVMDVGCSINPAIDIGQIEGAFIQGMGLYTIEELNYSPQGVLHTRGPDQYKIPAICDTPTEFHISLLPPSENSNTLYSSKGLGESGVFLGCSVFFAIHDAVSAARRERGLHGPLSLNSPLTPEKIRMACEDKFTKMIPRDEPGSCVPWNVPI
Km [5]: 323 ± 123 µM

Source: article PMC4574636 (Biochemical pharmacology, 2015)
